Tests used:
[1] = system: human leukemia HL-60 cells; test: Proliferation inhibition of human leukemia HL-60 cells, MTT method; assay type: cell-based; details: 48 h incubation, OPTI-MEM medium
Protocol: The inhibition rate of human leukemia HL-60 cells was evaluated by regular MTT method. The human leukemia HL-60 cells were picked up from cell incubator, after washed for twice using PBS, cells were digested by 0.25% trypsin, and then add medium to terminate the digestion. After cells were collected using centrifuge and re-suspended, counting cells under inverted microscope and adding medium to make a density which was 5×10^4 cells/mL. After 100 μL aliquots were added to each well of 96-well microtiter plates, cells were cultured in 5% incubator for overnight at 37° C., then the different concentration compounds were added to each well. After incubation for 48 h, MTT solution was added to each well and plates were then incubated for 4 h. The MTT tetrazolium was reduced to formazan by living cells. Then the formazan crystals were dissolved though adding DMSO to each well. The absorbance was read at 570 nm with a microplate reader.

[2] = system: lung cancer cell line A549; test: In vitro cell inhibition assay (crystal violet), lung cancer A549; assay type: cell-based, human
Text: (§1) In vitro Cell inhibition assay is as follows:
(§2) The human cancer cell lines used for this assay were bladder cancer J82, T24, prostate cancer LNCap, PC-3, lung cancer A549, H157, H460, H520, colon cancer HCT8, HCT116, RkO, and leukemia HL-60, etc.
(§3) In vitro cell culture technology was selected for the determination of inhibition rate bladder cancer cell lines J82 and T24, prostate cancer cell lines LNCap and PC-3, lung cancer cell lines A549, H157, H460 and H520. 1000 to 3000 cells were inoculated to 24-well plate, followed by addition of 1 mL culture medium well known to researchers in this field to each well, the cells were cultured in 5% incubator for 24 hours at 37° C., then the different concentration compounds and controls were added to each well. It should be noted that the added volume is not more than 0.5% of total volume. After completion of addition, the cells continued being cultured in incubator for one week, the culture medium was removed and washed by cold PBS of 1 mL once, and then fixed for 10 minutes at room temperature with 1% formalin, followed by wash with PBS of 1 mL. After fixation, stain was carried out with 0.1% crystal violet for 30 minutes. 0.1% crystal violet was recycled. The stained cells were washed gently with deionized water, dried at room temperature and kepted. The inhibition rate was calculated according to the foiling equation. The controls are Selumetinib (AZD6244), Gefitinib, Cisplatin. Inhibition rate=number of left cells each treatment/number of left cells of untreated control×100%

[3] = system: lung cancer cell line H520; test: In vitro cell inhibition assay (crystal violet), lung cancer H520; assay type: cell-based, human
Text: as §1, §2, §3

[4] = system: lung cancer cell line H460; test: In vitro cell inhibition assay (crystal violet), lung cancer H460; assay type: cell-based, human
Text: as §1, §2, §3

Row | SMILES | Inhibition rate on human cancer cells ([2]; A549, 5.0 μM) [%] | Inhibition rate on human cancer cells ([2]; A549, 2.5 μM) [%] | Inhibition rate on human cancer cells ([3]; H520, 2.5 μM) [%] | Inhibition rate on human cancer cells ([3]; H520, 5.0 μM) [%] | Inhibition rate on human cancer cells ([4]; H460, 1.0 μM) [%] | Inhibition rate on human cancer cells ([4]; H460, 2.5 μM) [%] | Inhibition rate on human cancer cells ([4]; H460, 5.0 μM) [%] | also measured
1 | COC=C(C(=O)OC)c1ccccc1COc1ccc2c(C)c(Cc3ccccc3)c(=O)oc2c1 [Compound 28-68] |  |  |  |  |  |  |  | Proliferation inhibitory effect on human leukemia HL-60 cell (%) ([1]; concentration 1 μM): 54.6%; Proliferation inhibitory effect on human leukemia HL-60 cell (%) ([1]; concentration 10 μM): 62.0%; Proliferation inhibitory effect on human leukemia HL-60 cell (%) ([1]; concentration 100 μM): 84.4%
2 | COC=C(C(=O)OC)c1ccccc1COc1ccc2c(-c3ccc(C#N)cc3)cc(=O)oc2c1 [28-135] | 80 |  |  |  |  |  |  | 
3 | CCCc1c(CCC)c2ccc(OCc3ccccc3C(=COC)C(=O)OC)cc2oc1=O [Compound 28-79] |  |  |  |  |  |  |  | Proliferation inhibitory effect on human leukemia HL-60 cell (%) ([1]; concentration 1 μM): 28.8%; Proliferation inhibitory effect on human leukemia HL-60 cell (%) ([1]; concentration 10 μM): 53.1%; Proliferation inhibitory effect on human leukemia HL-60 cell (%) ([1]; concentration 100 μM): 71.2%
4 | COC=C(C(=O)OC)c1ccccc1COc1ccc2cc(C#N)c(=O)oc2c1 [Compound 28-24] |  |  |  |  |  |  |  | Proliferation inhibitory effect on human leukemia HL-60 cell (%) ([1]; concentration 1 μM): 10.8%; Proliferation inhibitory effect on human leukemia HL-60 cell (%) ([1]; concentration 10 μM): 44.5%; Proliferation inhibitory effect on human leukemia HL-60 cell (%) ([1]; concentration 100 μM): 86.7%
5 | COC=C(C(=O)OC)c1ccccc1COc1ccc2c(-c3ccc(Br)cc3)cc(=O)oc2c1 [28-134] | 100 | 100 |  |  |  |  |  | 
6 | COC=C(C(=O)OC)c1ccccc1COc1ccc2c(-c3ccc(C)cc3)cc(=O)oc2c1 [28-136] | 100 | 100 |  |  |  |  |  | 
7 | CCCCCCc1c(C)c2ccc(OCc3ccccc3C(=COC)C(=O)OC)cc2oc1=O [28-75] | 90 |  | 80 | 100 | 70 | 90 | 95 | 
8 | COC=C(C(=O)OC)c1ccccc1COc1ccc2c(-c3ccccc3)cc(=O)oc2c1 [28-52] | 100 | 100 | 100 | 100 | 100 | 100 | 100 | Inhibition rate on human cancer cells ([2]; A549, 0.5 μM): 90%; Inhibition rate on human cancer cells ([2]; A549, 1.0 μM): 95%; Inhibition rate on human cancer cells ([3]; H520, 0.25 μM): 70%; Inhibition rate on human cancer cells ([3]; H520, 0.5 μM): 100%; Inhibition rate on human cancer cells ([3]; H520, 1.0 μM): 100%; Inhibition rate on human cancer cells ([4]; H460, 0.25 μM): 60%; Inhibition rate on human cancer cells ([4]; H460, 0.5 μM): 90%
9 | COC=C(C(=O)OC)c1ccccc1COc1ccc2c(-c3ccc(OC)cc3)cc(=O)oc2c1 [28-137] | 100 | 100 |  |  |  |  |  | 
10 | COC=C(C(=O)OC)c1ccccc1COc1ccc2c(-c3ccc(Cl)cc3)cc(=O)oc2c1 [28-29] | 95 |  | 70 | 100 | 70 | 90 | 95 | Inhibition rate on human cancer cells ([3]; H520, 0.25 μM): 30%; Inhibition rate on human cancer cells ([3]; H520, 0.5 μM): 40%; Inhibition rate on human cancer cells ([3]; H520, 1.0 μM): 70%
11 | COC=C(C(=O)OC)c1ccccc1COc1ccc2c(C)cc(=O)oc2c1C [Compound 28-3] |  |  |  |  |  |  |  | Proliferation inhibitory effect on human leukemia HL-60 cell (%) ([1]; concentration 1 μM): 4.1%; Proliferation inhibitory effect on human leukemia HL-60 cell (%) ([1]; concentration 10 μM): 33.4%; Proliferation inhibitory effect on human leukemia HL-60 cell (%) ([1]; concentration 100 μM): 58.8%
12 | COC=C(C(=O)OC)c1ccccc1COc1ccc2c(C)c(C(C)C)c(=O)oc2c1 [Compound 28-71] |  |  |  |  |  |  |  | Proliferation inhibitory effect on human leukemia HL-60 cell (%) ([1]; concentration 1 μM): 40.9%; Proliferation inhibitory effect on human leukemia HL-60 cell (%) ([1]; concentration 10 μM): 48.2%; Proliferation inhibitory effect on human leukemia HL-60 cell (%) ([1]; concentration 100 μM): 50.3%
13 | COC=C(C(=O)OC)c1ccccc1COc1ccc2c(-c3ccccc3Cl)cc(=O)oc2c1 [28-132] | 90 |  |  |  |  |  |  | 
14 | CCCc1cc(=O)oc2cc(OCc3ccccc3C(=COC)C(=O)OC)ccc12 [28-34] | 100 | 95 | 100 | 100 | 93 | 95 | 95 | Inhibition rate on human cancer cells ([2]; A549, 1.0 μM): 90%; Inhibition rate on human cancer cells ([3]; H520, 0.5 μM): 70%; Inhibition rate on human cancer cells ([3]; H520, 1.0 μM): 99%
15 | COC=C(C(=O)OC)c1ccccc1COc1ccc2c(-c3ccc(C(F)(F)F)cc3)cc(=O)oc2c1 [28-41] |  |  |  | 70 |  | 75 | 85 | 
16 | COC=C(C(=O)OC)c1ccccc1COc1ccc2c(-c3ccc(F)cc3)cc(=O)oc2c1 [Compound 28-38] |  |  |  |  |  |  |  | Proliferation inhibitory effect on human leukemia HL-60 cell (%) ([1]; concentration 1 μM): 77.5%; Proliferation inhibitory effect on human leukemia HL-60 cell (%) ([1]; concentration 10 μM): 72.9%; Proliferation inhibitory effect on human leukemia HL-60 cell (%) ([1]; concentration 100 μM): 63.7%
17 | CCc1cc(=O)oc2cc(OCc3ccccc3C(=COC)C(=O)OC)ccc12 [28-33] | 99 | 95 | 90 | 100 | 90 | 95 | 95 | Inhibition rate on human cancer cells ([2]; A549, 1.0 μM): 80%
18 | COC=C(C(=O)OC)c1ccccc1COc1ccc2c(C)c(Cl)c(=O)oc2c1 [28-12] | 100 | 95 | 100 | 100 | 75 | 90 | 95 | Inhibition rate on human cancer cells ([2]; A549, 1.0 μM): 80%; Inhibition rate on human cancer cells ([3]; H520, 1.0 μM): 50%
19 | COC=C(C(=O)OC)c1ccccc1COc1ccc2c(-c3cccc(Cl)c3)cc(=O)oc2c1 [28-133] | 100 | 100 |  |  |  |  |  | 
20 | CCc1c(C)c2ccc(OCc3ccccc3C(=COC)C(=O)OC)cc2oc1=O [Compound 28-18] | 100 | 100 | 100 | 100 | 95 | 95 | 95 | Inhibition rate on human cancer cells ([2]; A549, 0.5 μM): 90%; Inhibition rate on human cancer cells ([2]; A549, 1.0 μM): 100%; Inhibition rate on human cancer cells ([3]; H520, 0.25 μM): 50%; Inhibition rate on human cancer cells ([3]; H520, 0.5 μM): 95%; Inhibition rate on human cancer cells ([3]; H520, 1.0 μM): 100%; Inhibition rate on human cancer cells ([4]; H460, 0.25 μM): 80%; Inhibition rate on human cancer cells ([4]; H460, 0.5 μM): 90%
21 | COC=C(C(=O)OC)c1ccccc1COc1ccc2c3c(c(=O)oc2c1C)CCC3 [28-126] | 90 | 85 | 90 | 95 |  | 90 | 95 | Inhibition rate on human cancer cells ([3]; H520, 1.0 μM): 70%
